Results published in ChEMBL document CHEMBL5291721, “A preclinical secondary pharmacology resource illuminates target-adverse drug reaction associations of marketed drugs” (Nat Commun, 2023).
Each block holds one molecule with its values, some of them ahead of it.

Assays:
[1] = target: Gamma-aminobutyric acid receptor subunit alpha-1/alpha-2/beta-2/gamma-2 (Homo sapiens, UniProt P14867+P18507+P47869+P47870); format: protein-complex assay
[2] = target: T1, Muscarinic acetylcholine receptor M1 (Homo sapiens, UniProt P11229); format: functional, cell-based
T1 sequence (P11229 whole entry): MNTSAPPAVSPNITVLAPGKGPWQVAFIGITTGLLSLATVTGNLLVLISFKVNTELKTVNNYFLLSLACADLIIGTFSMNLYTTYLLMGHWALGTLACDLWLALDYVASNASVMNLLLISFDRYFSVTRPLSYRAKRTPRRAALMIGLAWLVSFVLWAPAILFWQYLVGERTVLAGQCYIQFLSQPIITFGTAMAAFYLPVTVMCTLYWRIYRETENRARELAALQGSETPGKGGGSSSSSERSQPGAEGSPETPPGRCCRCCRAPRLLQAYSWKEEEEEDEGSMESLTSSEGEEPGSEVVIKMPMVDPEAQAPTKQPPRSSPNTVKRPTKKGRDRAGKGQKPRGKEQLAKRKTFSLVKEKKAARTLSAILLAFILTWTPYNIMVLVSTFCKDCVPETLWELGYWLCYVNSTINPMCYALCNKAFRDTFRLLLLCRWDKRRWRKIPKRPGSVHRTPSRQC

[3] = target: Sodium-dependent serotonin transporter (Homo sapiens, UniProt P31645)
[4] = target: Gamma-aminobutyric acid receptor subunit alpha-1 (Rattus norvegicus, UniProt P62813)
Gamma-aminobutyric acid receptor subunit alpha-1, sequence (P62813 whole entry): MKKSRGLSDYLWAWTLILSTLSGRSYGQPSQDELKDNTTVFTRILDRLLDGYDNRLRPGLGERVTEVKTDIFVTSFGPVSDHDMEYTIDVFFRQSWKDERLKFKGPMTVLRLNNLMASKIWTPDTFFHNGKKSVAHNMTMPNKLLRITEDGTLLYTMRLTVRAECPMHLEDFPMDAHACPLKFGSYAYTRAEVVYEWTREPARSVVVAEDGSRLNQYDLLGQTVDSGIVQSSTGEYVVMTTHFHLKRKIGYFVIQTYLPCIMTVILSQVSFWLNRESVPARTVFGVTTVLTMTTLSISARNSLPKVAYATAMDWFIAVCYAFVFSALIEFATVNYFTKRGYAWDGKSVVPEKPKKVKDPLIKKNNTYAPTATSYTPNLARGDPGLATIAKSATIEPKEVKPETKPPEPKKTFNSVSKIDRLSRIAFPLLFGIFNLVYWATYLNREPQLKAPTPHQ

[5] = target: T1, Muscarinic acetylcholine receptor M1; format: functional, cell-based; remark: listed apart in the source
[6] = target: Cannabinoid receptor 1 (Homo sapiens, UniProt P21554); format: functional
Cannabinoid receptor 1, sequence (P21554 whole entry): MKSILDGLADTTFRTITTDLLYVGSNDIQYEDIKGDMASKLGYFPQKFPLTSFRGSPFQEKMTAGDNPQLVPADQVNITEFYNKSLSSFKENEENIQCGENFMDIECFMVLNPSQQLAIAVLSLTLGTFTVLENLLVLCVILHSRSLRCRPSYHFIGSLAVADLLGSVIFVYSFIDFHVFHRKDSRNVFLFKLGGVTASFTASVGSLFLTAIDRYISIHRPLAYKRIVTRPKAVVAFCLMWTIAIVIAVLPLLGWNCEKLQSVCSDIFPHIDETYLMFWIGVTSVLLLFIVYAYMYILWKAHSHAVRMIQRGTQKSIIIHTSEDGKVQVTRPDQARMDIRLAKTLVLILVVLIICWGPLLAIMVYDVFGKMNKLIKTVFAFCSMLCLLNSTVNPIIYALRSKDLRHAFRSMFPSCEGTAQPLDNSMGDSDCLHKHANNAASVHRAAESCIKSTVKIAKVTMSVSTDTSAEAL

[7] = target: Gamma-aminobutyric acid type B receptor subunit 1 (Homo sapiens, UniProt Q9UBS5)
Gamma-aminobutyric acid type B receptor subunit 1, sequence (Q9UBS5 whole entry): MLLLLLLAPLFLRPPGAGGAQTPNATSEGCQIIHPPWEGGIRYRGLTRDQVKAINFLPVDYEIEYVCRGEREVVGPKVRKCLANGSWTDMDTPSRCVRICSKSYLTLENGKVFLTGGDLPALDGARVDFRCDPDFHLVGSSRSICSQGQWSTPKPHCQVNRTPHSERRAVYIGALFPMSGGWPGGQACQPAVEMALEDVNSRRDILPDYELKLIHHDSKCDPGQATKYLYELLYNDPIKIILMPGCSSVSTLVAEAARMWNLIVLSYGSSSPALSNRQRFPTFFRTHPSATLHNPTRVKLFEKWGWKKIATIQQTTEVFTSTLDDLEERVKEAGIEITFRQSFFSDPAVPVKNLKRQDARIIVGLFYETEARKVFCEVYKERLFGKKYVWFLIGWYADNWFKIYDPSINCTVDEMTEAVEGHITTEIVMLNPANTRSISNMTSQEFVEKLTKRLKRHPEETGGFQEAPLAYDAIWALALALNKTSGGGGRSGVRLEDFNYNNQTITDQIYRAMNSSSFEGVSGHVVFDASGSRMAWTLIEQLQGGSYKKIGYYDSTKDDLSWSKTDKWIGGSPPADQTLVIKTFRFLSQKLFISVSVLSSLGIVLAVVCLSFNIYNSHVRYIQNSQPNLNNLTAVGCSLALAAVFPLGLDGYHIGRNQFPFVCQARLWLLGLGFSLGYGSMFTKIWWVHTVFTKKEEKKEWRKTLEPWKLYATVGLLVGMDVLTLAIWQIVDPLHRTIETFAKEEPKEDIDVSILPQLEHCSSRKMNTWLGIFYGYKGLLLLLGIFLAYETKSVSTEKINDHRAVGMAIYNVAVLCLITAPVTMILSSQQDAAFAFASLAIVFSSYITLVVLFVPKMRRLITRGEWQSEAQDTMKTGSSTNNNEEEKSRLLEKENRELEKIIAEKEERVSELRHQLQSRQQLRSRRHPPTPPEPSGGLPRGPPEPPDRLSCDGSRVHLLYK

[8] = target: T2, Alpha-1A adrenergic receptor (Homo sapiens, UniProt P35348)
T2 sequence (P35348 whole entry): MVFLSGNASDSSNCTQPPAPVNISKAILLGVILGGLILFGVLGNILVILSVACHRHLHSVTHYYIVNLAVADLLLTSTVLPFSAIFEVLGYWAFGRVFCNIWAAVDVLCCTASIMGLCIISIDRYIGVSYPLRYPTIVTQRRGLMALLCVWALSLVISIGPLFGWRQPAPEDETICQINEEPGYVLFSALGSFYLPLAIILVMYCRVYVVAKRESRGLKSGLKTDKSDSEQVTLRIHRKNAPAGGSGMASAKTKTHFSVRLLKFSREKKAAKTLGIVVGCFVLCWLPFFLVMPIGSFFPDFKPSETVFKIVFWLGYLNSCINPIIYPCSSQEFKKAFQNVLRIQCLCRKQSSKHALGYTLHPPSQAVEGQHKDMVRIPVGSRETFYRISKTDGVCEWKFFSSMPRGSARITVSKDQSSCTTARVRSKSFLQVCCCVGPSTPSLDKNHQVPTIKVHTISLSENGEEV

[9] = target: T3, Muscarinic acetylcholine receptor M5 (Homo sapiens, UniProt P08912)
T3 sequence (P08912 whole entry): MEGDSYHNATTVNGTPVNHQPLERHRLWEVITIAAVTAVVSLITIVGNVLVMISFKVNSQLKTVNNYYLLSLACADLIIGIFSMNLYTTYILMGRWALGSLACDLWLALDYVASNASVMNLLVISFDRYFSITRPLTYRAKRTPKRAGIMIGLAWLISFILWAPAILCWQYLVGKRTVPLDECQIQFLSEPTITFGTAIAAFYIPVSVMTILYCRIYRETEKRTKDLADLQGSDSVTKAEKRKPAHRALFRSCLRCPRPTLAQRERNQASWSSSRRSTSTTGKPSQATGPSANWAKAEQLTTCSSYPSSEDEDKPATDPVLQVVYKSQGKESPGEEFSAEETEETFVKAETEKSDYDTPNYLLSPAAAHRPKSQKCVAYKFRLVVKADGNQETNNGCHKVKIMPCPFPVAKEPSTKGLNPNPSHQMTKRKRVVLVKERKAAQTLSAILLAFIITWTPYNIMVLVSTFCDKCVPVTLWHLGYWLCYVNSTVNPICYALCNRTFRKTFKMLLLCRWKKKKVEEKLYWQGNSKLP

[10] = target: Sodium channel protein type 5 subunit alpha (Homo sapiens, UniProt Q14524); format: functional, cell-based
Sodium channel protein type 5 subunit alpha, sequence (Q14524 whole entry): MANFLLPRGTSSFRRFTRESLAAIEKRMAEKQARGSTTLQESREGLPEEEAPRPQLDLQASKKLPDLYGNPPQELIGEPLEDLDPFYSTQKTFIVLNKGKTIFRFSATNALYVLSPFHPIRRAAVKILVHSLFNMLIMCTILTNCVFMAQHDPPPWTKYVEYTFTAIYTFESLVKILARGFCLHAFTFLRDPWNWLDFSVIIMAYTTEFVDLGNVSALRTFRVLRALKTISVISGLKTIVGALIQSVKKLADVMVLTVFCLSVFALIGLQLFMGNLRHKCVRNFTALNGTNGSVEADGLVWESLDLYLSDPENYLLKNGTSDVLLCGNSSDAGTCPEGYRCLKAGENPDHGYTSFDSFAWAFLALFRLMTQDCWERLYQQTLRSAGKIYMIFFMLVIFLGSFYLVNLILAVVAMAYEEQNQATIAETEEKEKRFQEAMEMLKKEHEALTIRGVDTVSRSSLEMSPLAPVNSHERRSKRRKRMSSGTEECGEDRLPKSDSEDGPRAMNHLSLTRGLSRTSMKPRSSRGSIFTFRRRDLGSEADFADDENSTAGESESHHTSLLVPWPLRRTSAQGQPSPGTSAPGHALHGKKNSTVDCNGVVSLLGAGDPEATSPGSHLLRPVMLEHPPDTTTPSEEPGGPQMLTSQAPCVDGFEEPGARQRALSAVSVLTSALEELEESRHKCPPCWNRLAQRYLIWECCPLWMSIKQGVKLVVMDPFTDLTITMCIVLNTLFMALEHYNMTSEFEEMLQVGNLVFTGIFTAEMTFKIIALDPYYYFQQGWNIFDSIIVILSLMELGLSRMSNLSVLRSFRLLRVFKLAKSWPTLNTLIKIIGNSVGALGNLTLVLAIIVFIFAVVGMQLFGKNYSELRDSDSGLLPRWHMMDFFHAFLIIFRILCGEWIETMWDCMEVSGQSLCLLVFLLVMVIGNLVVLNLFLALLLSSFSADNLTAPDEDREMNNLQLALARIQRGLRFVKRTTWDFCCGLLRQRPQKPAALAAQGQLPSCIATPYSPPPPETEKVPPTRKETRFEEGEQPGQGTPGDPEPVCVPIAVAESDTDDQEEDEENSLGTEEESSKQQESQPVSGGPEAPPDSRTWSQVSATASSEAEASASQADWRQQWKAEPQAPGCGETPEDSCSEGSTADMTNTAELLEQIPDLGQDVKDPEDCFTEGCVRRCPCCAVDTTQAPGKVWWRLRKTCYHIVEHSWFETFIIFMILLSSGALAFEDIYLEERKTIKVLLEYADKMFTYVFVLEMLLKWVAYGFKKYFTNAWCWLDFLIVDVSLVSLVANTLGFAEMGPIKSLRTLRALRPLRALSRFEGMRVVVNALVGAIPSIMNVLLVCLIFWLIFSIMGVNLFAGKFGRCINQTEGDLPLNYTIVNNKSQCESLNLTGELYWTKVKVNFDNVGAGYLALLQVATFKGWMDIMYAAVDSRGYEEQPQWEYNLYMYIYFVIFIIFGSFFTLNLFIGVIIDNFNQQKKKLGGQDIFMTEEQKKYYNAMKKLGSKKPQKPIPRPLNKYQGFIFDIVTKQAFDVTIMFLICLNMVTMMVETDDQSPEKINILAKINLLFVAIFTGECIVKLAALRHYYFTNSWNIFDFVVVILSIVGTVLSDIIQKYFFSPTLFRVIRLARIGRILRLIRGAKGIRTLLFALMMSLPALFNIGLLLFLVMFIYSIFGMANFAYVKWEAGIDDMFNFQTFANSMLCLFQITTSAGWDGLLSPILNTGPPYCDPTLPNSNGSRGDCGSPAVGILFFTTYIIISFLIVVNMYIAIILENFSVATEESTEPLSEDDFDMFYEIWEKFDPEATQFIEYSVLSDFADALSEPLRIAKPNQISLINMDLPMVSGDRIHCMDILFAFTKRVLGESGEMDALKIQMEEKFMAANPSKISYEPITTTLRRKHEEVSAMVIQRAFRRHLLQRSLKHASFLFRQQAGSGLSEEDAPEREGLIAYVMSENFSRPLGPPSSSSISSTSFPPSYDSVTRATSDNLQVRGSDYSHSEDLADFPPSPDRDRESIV

[11] = target: T4, D(4) dopamine receptor (Homo sapiens, UniProt P21917)
T4 sequence (P21917 whole entry): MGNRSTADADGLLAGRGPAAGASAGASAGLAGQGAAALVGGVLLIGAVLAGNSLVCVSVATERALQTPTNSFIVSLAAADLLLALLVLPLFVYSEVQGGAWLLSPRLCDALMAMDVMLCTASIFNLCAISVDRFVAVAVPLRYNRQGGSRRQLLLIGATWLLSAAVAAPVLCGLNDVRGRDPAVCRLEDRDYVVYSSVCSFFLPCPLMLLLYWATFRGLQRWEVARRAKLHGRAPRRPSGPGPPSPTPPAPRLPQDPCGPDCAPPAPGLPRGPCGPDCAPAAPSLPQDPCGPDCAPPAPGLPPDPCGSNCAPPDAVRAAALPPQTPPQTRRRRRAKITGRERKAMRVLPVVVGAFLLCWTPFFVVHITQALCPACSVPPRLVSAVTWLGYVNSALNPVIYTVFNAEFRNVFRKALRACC

[12] = target: 5-hydroxytryptamine receptor 7 (Homo sapiens, UniProt P34969)
5-hydroxytryptamine receptor 7, sequence (P34969 whole entry): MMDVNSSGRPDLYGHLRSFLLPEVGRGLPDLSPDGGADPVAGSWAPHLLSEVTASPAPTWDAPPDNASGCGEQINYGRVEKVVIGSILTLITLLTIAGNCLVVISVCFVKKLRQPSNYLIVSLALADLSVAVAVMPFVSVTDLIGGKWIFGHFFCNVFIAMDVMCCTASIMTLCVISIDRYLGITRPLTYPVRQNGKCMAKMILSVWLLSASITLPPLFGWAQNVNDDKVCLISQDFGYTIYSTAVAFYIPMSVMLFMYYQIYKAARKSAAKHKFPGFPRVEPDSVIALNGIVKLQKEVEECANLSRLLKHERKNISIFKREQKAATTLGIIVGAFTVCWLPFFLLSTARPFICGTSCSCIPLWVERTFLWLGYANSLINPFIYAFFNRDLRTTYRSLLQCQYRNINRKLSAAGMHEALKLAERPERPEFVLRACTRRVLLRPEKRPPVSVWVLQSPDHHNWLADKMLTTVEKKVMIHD

[13] = target: Substance-P receptor (Homo sapiens, UniProt P25103)
Substance-P receptor, sequence (P25103 whole entry): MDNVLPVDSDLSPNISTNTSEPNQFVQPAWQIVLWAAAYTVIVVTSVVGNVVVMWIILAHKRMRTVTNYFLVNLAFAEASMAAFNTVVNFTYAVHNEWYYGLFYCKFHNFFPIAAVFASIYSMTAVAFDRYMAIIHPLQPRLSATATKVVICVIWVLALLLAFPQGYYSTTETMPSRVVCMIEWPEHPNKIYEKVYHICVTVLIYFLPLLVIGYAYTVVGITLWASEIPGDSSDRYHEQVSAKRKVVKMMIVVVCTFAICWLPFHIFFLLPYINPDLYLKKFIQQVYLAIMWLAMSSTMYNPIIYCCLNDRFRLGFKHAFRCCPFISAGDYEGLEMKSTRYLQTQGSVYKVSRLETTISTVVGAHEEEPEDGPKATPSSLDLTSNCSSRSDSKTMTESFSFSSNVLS

[14] = target: T1, Muscarinic acetylcholine receptor M1; format: functional, cell-based; remark: listed apart in the source
[15] = target: T1, Muscarinic acetylcholine receptor M1; format: functional, cell-based; remark: listed apart in the source
Further: assay procedure not described here.

- AC50 [1]: > 30 µM
SMILES: O=C(O)CCCCC1CCSS1 (stereo not drawn) [LIPOIC ACID, ALPHA]

- AC50 [2]: 20.4 µM
- AC50 [3]: > 30 µM
- AC50 [4]: > 30 µM
- AC50 [5]: > 30 µM
SMILES: Nc1c2ccccc2nc2ccccc12 [AMINACRINE]

- AC50 [6]: > 10 µM
- AC50 [7]: > 10 µM
- AC50 [8]: > 10 µM
- AC50 [9]: > 10 µM
- AC50 [11]: > 10 µM
- AC50 [12]: > 10 µM
- AC50 [13]: > 10 µM
SMILES: Cn1c(=O)cc(N2CCC[C@@H](N)C2)n(Cc2ccccc2C#N)c1=O [ALOGLIPTIN]
- AC50 [10]: > 150 µM

SMILES: C[N@+]1(CCF)[C@@H]2CC[C@H]1C[C@@H](OC(=O)C(O)(c1ccccc1)c1ccccc1)C2
- AC50 [14]: > 30 µM
- AC50 [15]: 0.0005 µM
